Test in all cases: NCI anticancer screen, dose series, 48 h
In test [1] the test system is ACHN.
Test [2] deals with KM12.
Test [3] deals with OVCAR-8.
In test [4] the test system is NCI-H522.
The test system of test [5] is EKVX.
In test [6] the test system is OVCAR-5.
The test system of test [7] is LOX IMVI.
The subject of test [8] is CCRF-CEM.
For test [9], the system named is Hs-578T.
Test [10] concerns SF-539.
Test [11] has as its system UO-31.
Test [12] relates to SF-268.
In test [13] the test system is SK-MEL-2.
For test [14], the system named is K562.
Test [15] has as its system MCF7.
Test [16] has as its system DU-145.
Test [17] concerns HOP-18.
For test [18], the system named is UACC-257.
Test [19] concerns HL-60.
In test [20] the test system is SNB-19.

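Grown in 96-well plates, cells were treated for 48 hours with each compound at five concentrations. Insufficient inhibition: endpoint recorded as highest concentration tested. GI50 marks 50% less growth.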 Active and inactive are the calls of the source. No stated cut-off is given here; in the data, active = GI50 up to about 1.1 µM and inactive = higher. Where only a bound is given, the exact number is not on record here.

Turning to `COc1ccc(OC)c2c1C(=O)C(Cl)=C(Cl)C2=O`, the GI50 in test [1] was 2.99 µM (inactive); in test [2], 17.3 µM (inactive); in [3], 6.46 µM (inactive); in [4], 2.04 µM (inactive); in [5], 8.3 µM (inactive); in [6], 15.7 µM (inactive). Further, the GI50 was 2.07 µM (inactive) in test [7]; 14.6 µM (inactive) in [8]; 2.65 µM (inactive) in test [9]; 4.72 µM (inactive) in test [10]; 2.44 µM (inactive) in [11]; 13.5 µM (inactive) in test [12]. Further, the GI50 in test [13] is 3.06 µM (inactive); in test [14], > 22.2 µM (inactive); in [15], 2.6 µM (inactive); in test [16], 19.6 µM (inactive); in test [17], 3.54 µM (inactive); in test [18], 2.19 µM (inactive). In addition, the GI50 is 44.5 µM (inactive) in test [19] and > 46 µM (inactive) in [20].

For `O=C(CCN1CCCCC1)N1CCc2c([nH]c3ccccc23)C1c1cccnc1` (stereo not given), the GI50 was > 85.5 µM (inactive) in test [1]; > 100 µM (inactive) in [2]; 69.3 µM (inactive) in test [3]; 35.3 µM (inactive) in [4]; 52.7 µM (inactive) in [5]; > 73.3 µM (inactive) in test [6]. In addition, the GI50 was 40.6 µM (inactive) in test [7]; 57.4 µM (inactive) in test [8]; 66.4 µM (inactive) in [9]; 61.4 µM (inactive) in test [10]; 38.3 µM (inactive) in test [11]; 61.4 µM (inactive) in [12]. Also, the GI50 in [13] is 18.3 µM (inactive); in [14] it was 30.8 µM (inactive); in [15] it was 99.3 µM (inactive); in [16], > 100 µM (inactive); in test [17], > 100 µM (inactive); in [18] it was 17.5 µM (inactive). In addition, the values for the GI50 in test [19] and in [20] were 41.2 µM (inactive) and > 100 µM (inactive), respectively.

For the molecule `COCc1cc2c(s1)C(=O)C1=C(C2=O)C2(C=C(Br)C(=O)C(Br)=C2)CCN1`, the GI50 in test [1] is 4.98 µM (inactive); in test [2], 4.85 µM (inactive); in [3], 4.15 µM (inactive); in [4], 2.39 µM (inactive); in test [5] it was 11.7 µM (inactive); in [6] it was 15.5 µM (inactive). Further, the GI50 in [7] is 2.19 µM (inactive); in test [8] it was 3.01 µM (inactive); in test [9], 9.53 µM (inactive); in [10] it was 4.65 µM (inactive); in [11] it was 12.8 µM (inactive); in test [12] it was 4.86 µM (inactive). The GI50 in [13] was 3.55 µM (inactive); in test [14], 2.11 µM (inactive); in [15], 10.6 µM (inactive); in test [16], 16 µM (inactive); in [17], 15.1 µM (inactive); in test [18], 1.55 µM (inactive). Also, the GI50 in test [19] is 2.36 µM (inactive); in test [20], 18.3 µM (inactive).

As for `C/C(=N\NC(=S)NNC(=S)N(C)c1ccccc1)c1ccccn1`, the GI50 in test [1] was 0.628 µM (active); in test [2], 4.21 µM (inactive); in test [3], 0.538 µM (active); in [5], 0.805 µM (active); in test [6], 24 µM (inactive); in test [8], 0.399 µM (active). Besides, the GI50 in [9] is 26 µM (inactive); in [10], 2.07 µM (inactive); in test [11] it was 0.577 µM (active); in [12] it was 2.91 µM (inactive); in test [13] it was 5.68 µM (inactive); in [14], 2.31 µM (inactive). Further, the GI50 in test [15] was 1.84 µM (inactive); in [16], 1.02 µM (active); in [17] it was 0.198 µM (active); in test [18] it was 1.31 µM (inactive); in [19], 0.343 µM (active); in [20], 2.7 µM (inactive).

For `CCN(CC)CCNc1ccc2ncn3c4ccc(O)cc4c(=O)c1c23`, the GI50 in test [1] is 0.0499 µM (active); in test [2] it was 1.21 µM (inactive); in test [3], 0.561 µM (active); in [4], 0.458 µM (active); in test [5], 7.28 µM (inactive); in test [6] it was 2.37 µM (inactive). Besides, the GI50 was 0.327 µM (active) in [7]; 0.0719 µM (active) in [8]; 3.11 µM (inactive) in [9]; 0.458 µM (active) in [10]; 0.429 µM (active) in [11]; 0.721 µM (active) in test [12]. For the same molecule, the GI50 was 6.78 µM (inactive) in test [13]; 1.04 µM (active) in test [14]; 0.15 µM (active) in test [15]; 0.315 µM (active) in [16]; 5.92 µM (inactive) in [17]; 6.62 µM (inactive) in test [18]. Besides, the GI50 in test [19] was 0.131 µM (active); in test [20], 1.01 µM (active).

Take `O=C(O)CN(c1ccccc1)S(=O)(=O)c1cccc([N+](=O)[O-])c1`: the GI50 in test [1], in test [2], in test [3], in test [4], in [5] and in test [6] was > 100 µM (inactive) throughout. In addition, the GI50 in [7], in test [8], in test [10], in test [11], in test [12] and in test [13] was > 100 µM (inactive) throughout. Moreover, the GI50 in [14], in test [17], in test [18], in test [19] and in test [20] was > 100 µM (inactive) in each case.

For the origin of these results see ChEMBL document CHEMBL1201862, “PubChem BioAssay data set” (2004).
